Source: publication PMC11062922 (Nature Chemical Biology, 2023)

Key:
JAK2 = test: Kinobeads competition binding: JAK2; parameters: species or system human; details: target JAK2;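 also: target engagement share of this target among all targets at its Kdapp concentration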
EPHB2 = molecular target: T1, EPHB2 (Homo sapiens, UniProt P29323); test: Kinobeads competition binding: EPHB2; details: target EPHB2;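 also: target engagement share of this target among all targets at its Kdapp concentration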
T1 construct: endogenous in cells
T1 sequence (P29323 19-1055): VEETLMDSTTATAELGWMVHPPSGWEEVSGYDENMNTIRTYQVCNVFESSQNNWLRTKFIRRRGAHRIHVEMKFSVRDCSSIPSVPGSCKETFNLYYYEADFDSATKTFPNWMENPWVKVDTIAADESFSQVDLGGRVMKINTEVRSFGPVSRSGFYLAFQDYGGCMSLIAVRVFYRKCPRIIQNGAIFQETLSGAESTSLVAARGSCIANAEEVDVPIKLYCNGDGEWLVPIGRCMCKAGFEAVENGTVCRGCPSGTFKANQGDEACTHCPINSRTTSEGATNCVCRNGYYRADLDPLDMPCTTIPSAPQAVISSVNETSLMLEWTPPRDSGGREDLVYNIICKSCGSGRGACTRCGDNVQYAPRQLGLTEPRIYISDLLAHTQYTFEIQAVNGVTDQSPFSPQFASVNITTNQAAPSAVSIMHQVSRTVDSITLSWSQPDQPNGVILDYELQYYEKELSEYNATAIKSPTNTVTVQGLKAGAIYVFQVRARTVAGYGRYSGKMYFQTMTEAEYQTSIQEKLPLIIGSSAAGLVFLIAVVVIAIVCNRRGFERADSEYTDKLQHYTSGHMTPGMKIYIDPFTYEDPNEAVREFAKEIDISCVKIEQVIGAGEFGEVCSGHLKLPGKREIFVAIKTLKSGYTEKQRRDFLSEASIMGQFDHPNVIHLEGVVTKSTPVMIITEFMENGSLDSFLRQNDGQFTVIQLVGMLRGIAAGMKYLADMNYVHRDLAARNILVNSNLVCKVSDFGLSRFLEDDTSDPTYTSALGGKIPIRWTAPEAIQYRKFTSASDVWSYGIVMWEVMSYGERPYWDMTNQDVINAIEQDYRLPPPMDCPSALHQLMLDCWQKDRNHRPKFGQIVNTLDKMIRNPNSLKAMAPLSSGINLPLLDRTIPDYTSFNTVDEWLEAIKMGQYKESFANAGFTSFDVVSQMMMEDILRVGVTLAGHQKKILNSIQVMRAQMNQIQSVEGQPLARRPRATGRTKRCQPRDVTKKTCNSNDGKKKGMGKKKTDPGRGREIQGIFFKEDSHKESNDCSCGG
From the text: Supplement 41589_2023_1459_MOESM4_ESM.xlsx, sheet "CATDS matrix" | column: EPHB2

CDK4 = molecular target: T2, CDK4 (Homo sapiens, UniProt P11802); test: Kinobeads competition binding: CDK4; details: target CDK4
T2 construct: endogenous in cells
From the text: Supplement 41589_2023_1459_MOESM4_ESM.xlsx, sheet "CATDS matrix" | column: CDK4

CDC7 = molecular target: T3, CDC7 (Homo sapiens, UniProt O00311); test: Kinobeads competition binding: CDC7; details: target CDC7
T3 construct: endogenous in cells

NQO2 = test: Kinobeads competition binding: NQO2; parameters: species or system human; details: target NQO2
PDGFRB = molecular target: T4, PDGFRB (Homo sapiens, UniProt P09619); test: Kinobeads competition binding: PDGFRB; details: target PDGFRB;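 also: share of total target engagement due to this protein at one drug concentration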
T4 construct: a mixture of lysates from five cancer cell lines; endogenous in cells
From the text: Supplement 41589_2023_1459_MOESM4_ESM.xlsx, sheet "CATDS matrix" | column: PDGFRB

IKBKE = molecular target: T5, IKBKE (Homo sapiens, UniProt Q14164); test: Kinobeads competition binding: IKBKE; details: target IKBKE
T5 construct: endogenous in cells
T5 sequence (Q14164 1-716): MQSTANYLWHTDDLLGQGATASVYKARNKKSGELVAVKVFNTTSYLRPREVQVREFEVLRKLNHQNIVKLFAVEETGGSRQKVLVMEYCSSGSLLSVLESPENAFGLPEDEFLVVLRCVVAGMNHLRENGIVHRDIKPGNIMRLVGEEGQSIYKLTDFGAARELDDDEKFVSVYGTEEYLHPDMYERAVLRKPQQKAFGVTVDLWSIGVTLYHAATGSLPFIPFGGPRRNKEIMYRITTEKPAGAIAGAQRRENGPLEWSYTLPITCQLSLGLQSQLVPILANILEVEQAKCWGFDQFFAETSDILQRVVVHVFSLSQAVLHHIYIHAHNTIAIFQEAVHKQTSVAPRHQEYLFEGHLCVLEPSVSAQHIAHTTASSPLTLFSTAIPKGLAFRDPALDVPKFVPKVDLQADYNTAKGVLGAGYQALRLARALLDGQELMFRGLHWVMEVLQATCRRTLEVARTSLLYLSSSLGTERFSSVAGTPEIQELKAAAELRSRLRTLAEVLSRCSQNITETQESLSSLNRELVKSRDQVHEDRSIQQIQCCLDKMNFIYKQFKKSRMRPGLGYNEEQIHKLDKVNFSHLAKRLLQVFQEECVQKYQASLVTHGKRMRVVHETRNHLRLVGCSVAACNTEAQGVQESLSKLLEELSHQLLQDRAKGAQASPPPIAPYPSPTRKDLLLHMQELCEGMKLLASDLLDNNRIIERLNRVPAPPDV

PKMYT1 = test: Kinobeads competition binding: PKMYT1; parameters: species or system human; details: target PKMYT1

T4 sequence (P09619 33-1106): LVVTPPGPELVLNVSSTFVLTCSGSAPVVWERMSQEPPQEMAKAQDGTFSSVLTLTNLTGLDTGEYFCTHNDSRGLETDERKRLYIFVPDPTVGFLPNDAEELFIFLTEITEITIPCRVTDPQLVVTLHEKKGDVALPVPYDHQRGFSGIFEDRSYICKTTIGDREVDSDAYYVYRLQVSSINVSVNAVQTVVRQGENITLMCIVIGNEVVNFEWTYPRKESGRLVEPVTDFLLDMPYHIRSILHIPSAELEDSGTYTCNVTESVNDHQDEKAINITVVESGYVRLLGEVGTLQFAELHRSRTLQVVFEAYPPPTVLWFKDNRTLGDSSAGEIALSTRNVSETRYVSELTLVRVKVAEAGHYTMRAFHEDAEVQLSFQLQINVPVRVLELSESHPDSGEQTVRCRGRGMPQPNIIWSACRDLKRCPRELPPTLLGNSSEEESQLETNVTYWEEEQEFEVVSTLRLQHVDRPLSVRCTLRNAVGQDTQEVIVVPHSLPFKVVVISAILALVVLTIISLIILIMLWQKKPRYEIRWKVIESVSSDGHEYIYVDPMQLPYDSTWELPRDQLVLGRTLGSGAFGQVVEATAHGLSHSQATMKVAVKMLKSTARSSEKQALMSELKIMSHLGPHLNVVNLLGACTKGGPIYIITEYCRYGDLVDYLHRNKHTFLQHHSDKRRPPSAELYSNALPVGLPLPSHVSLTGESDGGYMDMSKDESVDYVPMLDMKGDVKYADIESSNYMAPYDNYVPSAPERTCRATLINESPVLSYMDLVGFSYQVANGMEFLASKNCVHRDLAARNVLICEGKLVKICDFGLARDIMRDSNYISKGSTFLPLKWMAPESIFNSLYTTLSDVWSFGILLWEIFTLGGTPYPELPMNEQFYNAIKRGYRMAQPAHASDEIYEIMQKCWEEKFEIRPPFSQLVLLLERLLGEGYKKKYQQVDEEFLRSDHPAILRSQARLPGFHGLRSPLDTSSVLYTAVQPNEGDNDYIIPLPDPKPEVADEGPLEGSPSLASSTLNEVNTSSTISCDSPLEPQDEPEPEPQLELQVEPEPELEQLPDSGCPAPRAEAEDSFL
T3 sequence (O00311 whole entry): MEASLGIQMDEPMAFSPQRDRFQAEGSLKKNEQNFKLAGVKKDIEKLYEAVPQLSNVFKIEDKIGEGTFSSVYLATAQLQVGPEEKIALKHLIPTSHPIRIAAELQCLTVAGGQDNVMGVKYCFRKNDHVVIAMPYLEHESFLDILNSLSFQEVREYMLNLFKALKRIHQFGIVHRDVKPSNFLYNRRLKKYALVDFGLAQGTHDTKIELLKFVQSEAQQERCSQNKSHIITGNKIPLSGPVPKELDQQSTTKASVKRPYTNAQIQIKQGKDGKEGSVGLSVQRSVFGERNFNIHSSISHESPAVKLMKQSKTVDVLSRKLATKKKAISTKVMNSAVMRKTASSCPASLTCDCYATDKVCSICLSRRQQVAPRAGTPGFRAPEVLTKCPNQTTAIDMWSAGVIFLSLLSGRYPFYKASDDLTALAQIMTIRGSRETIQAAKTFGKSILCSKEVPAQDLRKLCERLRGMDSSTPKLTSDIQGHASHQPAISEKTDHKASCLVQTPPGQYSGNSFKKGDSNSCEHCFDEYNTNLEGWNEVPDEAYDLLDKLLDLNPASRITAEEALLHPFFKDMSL
T2 sequence (P11802 whole entry): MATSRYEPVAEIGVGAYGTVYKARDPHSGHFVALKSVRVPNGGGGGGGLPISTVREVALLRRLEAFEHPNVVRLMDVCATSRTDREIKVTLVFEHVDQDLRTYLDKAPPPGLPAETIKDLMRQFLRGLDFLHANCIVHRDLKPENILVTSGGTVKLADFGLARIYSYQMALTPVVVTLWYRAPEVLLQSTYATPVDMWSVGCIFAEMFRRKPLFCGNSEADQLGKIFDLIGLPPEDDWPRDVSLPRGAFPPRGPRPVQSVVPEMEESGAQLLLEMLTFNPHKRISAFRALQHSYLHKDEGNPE

Row | SMILES | CATDS (JAK2) | CATDS (EPHB2) | CATDS (CDK4) | CATDS (CDC7) | CATDS (NQO2) | CATDS (PDGFRB) | CATDS (IKBKE) | CATDS (PKMYT1)
1 | CCN1CCN(Cc2ccc(Nc3ncc(F)c(-c4cc(F)c5nc(C)n(C(C)C)c5c4)n3)nc2)CC1 [Abemaciclib] | 0 | 0 | 0 | 0 | 0 | 0 | 0 | 0
2 | CN(C)C/C=C/C(=O)Nc1cc2c(Nc3ccc(F)c(Cl)c3)ncnc2cc1O[C@H]1CCOC1 [Afatinib] |  | 0 | 0 |  | 0 | 0 |  | 
3 | CCc1cc2c(cc1N1CCC(N3CCOCC3)CC1)C(C)(C)c1[nH]c3cc(C#N)ccc3c1C2=O [Alectinib] | 0 | 0 | 0 | 0 | 0 | 0 | 0 | 0
4 | Nc1ncnc2[nH]c(-c3ccccc3)nc12 [AH5015_KCGS] | 0 | 0.02863 | 0 | 0 | 0 | 0 | 0 | 0
5 | N#CC1(c2ccc(NC(=O)c3cccnc3NCc3ccncc3)cc2)CCCC1 [Apatinib] | 0 | 0 | 0 | 0 | 0 | 0 | 0 | 0
